This note sets out measurements from patent publication US12318434B2, “Alkaline phosphate-based oncology treatments” (Theriva Biologics, Inc., priority 2019, dated 2025).

Data set [1] has as its system BALB/c mice inoculated with CT26 murine colorectal cancer cells. The data set is described as follows: First set of experiments: stool consistency and weight change after 5-FU with or without IAP. Type of data set: in vivo. The source says:
(§1) The study conducted included evaluation of the effects of administration of an IAP (“SYN-020” is synonymous with IAP and SYN BIAPII) along with a chemotherapeutic treatment with 5-fluorouracil (5-FU) in a murine model. […] Stool consistency was scored as the following: Score 0=Normal (no diarrhea); Score 2=Loose, formed stools; and Score 4=Diarrhea.
The first set of experiments included three groups of BALB/c mice inoculated with CT26 murine colorectal cancer cells into the right flank: (1) a no-treatment control group of 18 male mice (“untreated”); (2) a group of 18 male mice (“vehicle+5-FU”) that received an intraperitoneal (IP) QD (once daily) dose of 30 mg/kg of 5-FU for 5 consecutive days (days 0-4) and a vehicle was administered PO (orally) BID (twice a day) throughout the study (days −3 to +26); and (3) a group of 18 male mice (“SYN BIAPII+5-FU”) that received an IP QD dose of 30 mg/kg of 5-FU for 5 consecutive days (days 0-4) and an IAP (SYN-020) in a dose of 0.5 mg/kg, administered PO BID throughout the study (days −3 to +26).

For data set [2] the test system is unchanged. The data set is described as follows: Second set of experiments: mean daily body weight change after 5-FU with or without IAP. The data set is classed as in vivo. The following applies: 5-FU 30 mg/kg IP QD days 0-4. The method, then:
(§2) The second set of experiments included four groups of BALB/c mice inoculated with CT26 murine colorectal cancer cells into the right flank: (1) a vehicle control group of 30 male mice (“vehicle”); (2) a group of 30 male mice that received a daily treatment dose of 100 U/dose, 0.5 mg/kg of SYN BIAP II alone (“SYN BIAP II”); (3) a group of 30 male mice (“vehicle+5-FU”) that received an IP QD dose of 30 mg/kg of 5-FU for 5 consecutive days (days 0-4) and vehicle treatment; and (4) a group of 30 male mice (“SYN BIAPII+5-FU”) that received an IP QD dose of 30 mg/kg of 5-FU for 5 consecutive days (days 0-4) and an IAP (SYN-020) in a dose of 100 U/dose, 0.5 mg/kg, administered PO BID throughout the study (days −3 to +26).
Cumulative differences in body weight change between treatment groups through 50% common group survival (Day (−3)-16) were assessed by calculating the area under the curve (AUC) for each animal using the trapezoidal transformation.

The test system is the same in data set [3]. To be noted: for Duration of Diarrhea (score = 4): Days < 4: animal-days with stool score < 4; for Duration of Diarrhea (score = 4): Days = 4: animal-days with stool score = 4 (diarrhea); for Duration of Diarrhea (score = 4): % Days = 4: percentage of total animal-days with diarrhea (score=4).
From the text: as §1, §2
Arrows indicate 5-FU administration days. […] The statistical significance of group differences in daily stool scores was assessed on each day by Mann-Whitney rank-sum analysis.
Table 1 below compares the duration of 5-FU-induced diarrhea by calculating the percentage of total animal-days with diarrhea (score=4). Groups were compared by chi-square test.

Where [4] appears, read: 5-FU 30 mg/kg IP QD days 0-4, vehicle or SYN-020 0.5 mg/kg PO BID days -3 to +26.

“Also recorded” adds a separate entry of the source.

Regarding `O=c1[nH]cc(F)c(=O)[nH]1` [vehicle + 5-FU, 5-fluorouracil], in data set [1] (5-FU 30 mg/kg IP QD days 0-4, all of the treated animals), the “effect of 5-FU administration on stools and weight” value was “caused loose stools/diarrhea, as well as associated weight loss; also recorded: caused loose stools/diarrhea, and associated weight loss”. Moreover, in data set [1] (setting [4]), the “day by which loose stools/diarrhea and associated weight loss recovered” value is at most 9 days; the “day on which loose stools/diarrhea and associated weight loss peaked” value was found to be 6 days. Also, in data set [2], the “day by which animals regained lost weight” value is about 20 days and the “day on which chemotherapy-induced weight loss peaked” value turned out to be 7 days. Further, in data set [2] (Day 7), the “chemotherapy-induced weight loss at peak (percent change compared to body weight at Day 0)” value was about −20%. Further, in data set [3] (5-FU 30 mg/kg IP QD days 0-4), the “day by which incidence of loose stools generally resolved” value was at most 12 days and the “day on which incidence of loose stools or diarrhea was first observed” value worked out at 5 days. In addition, in data set [3], the “Duration of Diarrhea (score = 4): Days < 4” value is listed as 245, the “Duration of Diarrhea (score = 4): Days = 4” value stood at 43 and the “Duration of Diarrhea (score = 4): % Days = 4” value is reported as 14.93%. Besides, the “animal-days with diarrhea compared to untreated animals” value in data set [3] (mouse, in vivo) was “statistically significant cumulative increase”.

B1: SYN BIAPII: intestinal alkaline phosphatase; BIAP II with stop codon and no leader sequence (SYN-020) (SEQ ID NO: 41) (protein)
chain: LIPAEEENPAFWNRQAAQALDVAKKLQPIQTAAKNVILFLGDGMGVPTVTATRILKGQMNGKLGPETPLAMDQFPYVALSKTYNVDRQVPDSAGTATAYLCGVKGNYRTIGVSAAARYNQCNTTRGNEVTSVINRAKKAGKAVGVVTTTRVQHASPAGAYAHTVNRNWYSDADLPADAQKNGCQDIAAQLVYNMDIDVILGGGRMYMFPEGTPDPEYPDDASVNGVRKDKQNLVQEWQAKHQGAQYVWNRTALLQAADDSSVTHLMGLFEPADMKYNVQQDHTKDPTLAEMTEAALQVLSRNPRGFYLFVEGGRIDHGHHDGKAYMALTEAIMFDNAIAKANELTSELDTLILVTADHSHVFSFGGYTLRGTSIFGLAPGKALDSKSYTSILYGNGPGYALGGGSRPDVNGSTSEEPSYRQQAAVPLASETHGGEDVAVFARGPQAHLVHGVQEETFVAHIMAFAGCVEPYTDCNLPAPATATSIPD
modifications: Synthetic polymer.
Take B1: the “recovery from the loose stools/diarrhea symptoms and associated weight loss” value in data set [1] (SYN-020 0.5 mg/kg PO BID plus 5-FU, compared with vehicle+5-FU, p<0.03) was “significantly faster recovery”. Also, in data set [3], the “Duration of Diarrhea (score = 4): Days < 4” value turned out to be 299, the “Duration of Diarrhea (score = 4): Days = 4” value worked out at 1 and the “Duration of Diarrhea (score = 4): % Days = 4” value came out at 0.33%. For the same molecule, the “stool consistency throughout the course of the analysis” value in data set [3] (mouse, in vivo, 0.5 mg/kg) is listed as “normal stool consistency”.
